These results are taken from patent US12358894B2 (priority 2019, dated 2025).

For this experiment, the system named is pathogens of rice blast. It counts as cell-based. To be noted: test solution 2000 ppm, 1,000 μl on oatmeal culture medium, 4-mm rice blast disc, 25° C., 6 days; calculated from elongation length of hyphae with vs without treatment.

For `COc1nc(-n2cccn2)nc(F)c1C(F)(F)F` [Example 1, 6-fluoro-4-methoxy-2-(1-pyrazolyl)-5-(trifluoromethyl)pyrimidine], the Preventive value is recorded as 100.
